Laboratory results from US10072026B2, “Crystalline form of 3-((1R,3s,5S)-3-((7-((5-methyl-1H-pyrazol-3-yl)amino)-1,6-naphthyridin-5-yl)amino)-8-azabicyclo[3.2.1]octan-8-yl)propanenitrile” (priority 2015, dated 2018).
Where two headings read alike, the source gives them in different places.

Key:
[1] = Determination of absorption in cannulated rats; assay type: in vivo; settings: Sprague Dawley rats, oral vs IV; for bioavailability: rat, plasma (jugular vein), jugular vein, read-out: oral bioavailability (F %)
Description: Drug levels were determined using an LC-MS-MS method. The resulting drug levels were used to compute the IV pharmacokinetic parameters: AUC IV and Dose IV. (2) Rats that have been cannulated in their portal vein (PV) and also in their jugular vein (JV) were dosed orally with test compound. Following oral dosing, plasma samples were typically collected from 0-6 hr from both the portal vein and the jugular vein. Drug levels were determined using an LC-MS-MS method. The resulting drug levels were used to compute the following pharmacokinetic parameters: AUC PO PV, AUC PO JV, and Dose PO. Using data derived from the above studies, the oral bioavailability F %, and the quantities Fa% and Fh% were calculated from the following formulas: F %=(AUC PO JV/AUC IV)*(Dose IV/Dose PO)*100 Fa%=(AUC PO PV/AUC IV)*(Dose IV/Dose PO)*100 Fh%=AUC PO JV/AUC PO PV where: AUC PO JV=Area under the curve following oral dose and plasma collected from the jugular vein AUC PO PV=Area under the curve following oral dose and plasma collected from the portal vein AUC IV=Area under the curve following an intravenous dose Dose IV=Intravenous Dose in mg/kg Dose PO=Oral Dose in mg/kg

[2] = tested on: IL-4 induced STAT6 phosphorylation in THP-1 human monocytic cells; experiment: Cellular JAK potency assay, THP-1; settings: for IC50: Homo sapiens, THP-1, read-out: THP-1 IL4 pIC50 (converted); for THP-1 IL4 pIC50: IL-4 induced STAT6 phosphorylation, THP-1 cells
[3] = tested on: oxazolone-induced colitis; experiment: Mouse model of oxazolone-induced colitis; assay type: in vivo, BALB/C mice; settings: mouse, PO, 1, 3, and/or 10 mg/kg BID
Description: Assay 7: Mouse Model of Oxazalone-Induced Colitis
Oxazolone-induced colitis is an experimental model that has a histological resemblance to human ulcerative colitis (Heller et al. Immunology, 2002, 17, 629-638). Adult BALB/C mice from Harlan were used in the assay. On day 1, animals were lightly anesthetized with isoflurane and the hairs between the shoulder were carefully removed before oxazolone (4%, 150 μL, 4:1 acetone:olive oil formulation) or vehicle solution was slowly applied for skin sensitization. Seven days after skin sensitization, the mice were fasted overnight, anesthetized with isoflurane inhalation, and a 1 mL syringe equipped with a 3.5-F catheter, filled with oxazolone solution, was inserted carefully about 4 cm into the colon of the mouse. Following insertion, 50 μL of the oxazolone solution (1%, 1:1 ethanol:water formulation) was injected very slowly (over 30 sec using an injection pump) into the colon. The catheter was removed and the mice were held vertically (head down) for 2 min to ensure that the entire oxazolone solution remained inside the colon. Drug treatment (PO, BID or TID) or vehicle was initiated a day prior to the oxazolone intrarectal (IR) challenge. Two-day post oxazolone intrarectal challenge, the Disease Activity Index (DAI) was assessed by treatment-blinded experimenters for each mouse according to the criteria score: stool consistency score (0, normal; 2, loose; 4, diarrhea), gross bleeding score (0, absence; 2, blood tinged; 4, presence), and weight loss score (0, none; 1, 1%-5%; 2, 5%-10%; 3, 10%-20%; 4, more than 20%); DAI=average of (stool consistency score+gross bleeding score+weight loss score).
Selected compounds of the invention were tested in the assay. Efficacy in the model is evidenced by a decrease in DAI score as compared with the score from vehicle treated animals.

[4] = tested on: IL-13 induced STAT6 phosphorylation in BEAS-2B human lung epithelial cells; experiment: AlphaScreen cellular JAK potency assay, BEAS-2B; settings: for IC50: Homo sapiens, BEAS-2B, read-out: BEAS2B pIC50 (converted); for BEAS2B pIC50: IL-13 induced STAT6 phosphorylation, BEAS-2B cells
JAK2 = JAK2 (Homo sapiens (Human), UniProt O60674); experiment: LanthaScreen JAK biochemical assay (JAK2)
Sequence of JAK2 (O60674 whole entry): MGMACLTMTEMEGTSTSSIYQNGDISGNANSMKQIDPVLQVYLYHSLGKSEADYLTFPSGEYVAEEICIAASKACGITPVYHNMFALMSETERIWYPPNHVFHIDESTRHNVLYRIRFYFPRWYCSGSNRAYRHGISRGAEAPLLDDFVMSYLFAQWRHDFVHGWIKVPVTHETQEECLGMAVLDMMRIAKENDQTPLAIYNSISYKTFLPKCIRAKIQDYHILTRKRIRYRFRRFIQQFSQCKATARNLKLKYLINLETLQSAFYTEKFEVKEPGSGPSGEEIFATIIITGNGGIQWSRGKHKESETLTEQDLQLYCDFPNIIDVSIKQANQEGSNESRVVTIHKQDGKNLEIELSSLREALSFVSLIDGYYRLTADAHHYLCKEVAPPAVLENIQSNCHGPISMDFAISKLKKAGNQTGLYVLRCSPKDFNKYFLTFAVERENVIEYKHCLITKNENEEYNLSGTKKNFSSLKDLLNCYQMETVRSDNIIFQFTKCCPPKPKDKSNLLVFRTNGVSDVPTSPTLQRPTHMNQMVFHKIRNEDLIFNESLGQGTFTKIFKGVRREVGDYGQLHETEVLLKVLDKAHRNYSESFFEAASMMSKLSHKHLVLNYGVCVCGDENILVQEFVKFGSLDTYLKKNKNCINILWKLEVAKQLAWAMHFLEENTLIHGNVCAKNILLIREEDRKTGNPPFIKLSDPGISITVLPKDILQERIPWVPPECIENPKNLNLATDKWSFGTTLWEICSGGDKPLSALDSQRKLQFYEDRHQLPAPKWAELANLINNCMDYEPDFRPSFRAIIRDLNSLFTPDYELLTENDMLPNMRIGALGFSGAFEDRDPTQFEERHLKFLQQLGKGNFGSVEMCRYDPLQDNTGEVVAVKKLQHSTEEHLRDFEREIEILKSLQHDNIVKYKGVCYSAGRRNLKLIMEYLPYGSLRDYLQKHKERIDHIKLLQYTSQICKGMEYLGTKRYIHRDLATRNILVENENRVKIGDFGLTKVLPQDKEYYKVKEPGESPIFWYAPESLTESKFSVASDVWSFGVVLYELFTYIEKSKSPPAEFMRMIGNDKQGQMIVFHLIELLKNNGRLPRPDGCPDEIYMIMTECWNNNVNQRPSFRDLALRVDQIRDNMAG

JAK3 = JAK3 (Homo sapiens (Human), UniProt P52333); experiment: LanthaScreen JAK biochemical assay (JAK3)
JAK1 = JAK1 (Homo sapiens (Human), UniProt P23458); experiment: LanthaScreen JAK biochemical assay (JAK1)
Sequence of JAK1 (P23458 whole entry): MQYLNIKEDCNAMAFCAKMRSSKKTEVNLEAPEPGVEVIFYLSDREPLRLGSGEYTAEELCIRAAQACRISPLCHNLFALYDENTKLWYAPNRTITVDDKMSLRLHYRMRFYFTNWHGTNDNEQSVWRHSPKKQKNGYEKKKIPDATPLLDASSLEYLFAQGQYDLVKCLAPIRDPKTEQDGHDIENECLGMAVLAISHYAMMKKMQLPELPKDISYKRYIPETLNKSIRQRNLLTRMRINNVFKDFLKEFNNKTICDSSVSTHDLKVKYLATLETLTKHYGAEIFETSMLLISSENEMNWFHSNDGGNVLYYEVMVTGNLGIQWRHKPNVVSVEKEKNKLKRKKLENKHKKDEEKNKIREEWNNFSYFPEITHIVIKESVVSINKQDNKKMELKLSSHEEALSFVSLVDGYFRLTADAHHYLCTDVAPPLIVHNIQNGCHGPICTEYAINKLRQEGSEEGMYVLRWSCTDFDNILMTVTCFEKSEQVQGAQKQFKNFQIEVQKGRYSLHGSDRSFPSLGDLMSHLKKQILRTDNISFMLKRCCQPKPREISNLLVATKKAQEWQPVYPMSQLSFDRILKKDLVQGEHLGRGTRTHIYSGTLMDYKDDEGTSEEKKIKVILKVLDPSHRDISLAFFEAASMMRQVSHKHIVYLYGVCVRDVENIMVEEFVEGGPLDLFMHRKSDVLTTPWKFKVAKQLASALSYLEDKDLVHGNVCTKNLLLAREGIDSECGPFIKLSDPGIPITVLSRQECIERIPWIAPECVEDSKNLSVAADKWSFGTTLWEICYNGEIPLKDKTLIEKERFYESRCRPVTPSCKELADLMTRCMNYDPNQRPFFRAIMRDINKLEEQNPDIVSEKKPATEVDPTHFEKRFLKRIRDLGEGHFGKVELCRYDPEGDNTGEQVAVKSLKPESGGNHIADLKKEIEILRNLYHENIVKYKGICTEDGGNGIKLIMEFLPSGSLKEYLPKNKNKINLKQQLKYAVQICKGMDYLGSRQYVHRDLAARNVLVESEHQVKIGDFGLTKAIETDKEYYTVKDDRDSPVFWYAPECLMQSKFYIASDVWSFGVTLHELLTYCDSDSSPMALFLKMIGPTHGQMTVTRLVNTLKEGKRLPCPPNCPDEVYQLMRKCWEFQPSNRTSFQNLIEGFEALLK

Tyk2 = Tyk2 (Homo sapiens (Human), UniProt P29597); experiment: LanthaScreen JAK biochemical assay (Tyk2)
Sequence of Tyk2 (P29597 whole entry): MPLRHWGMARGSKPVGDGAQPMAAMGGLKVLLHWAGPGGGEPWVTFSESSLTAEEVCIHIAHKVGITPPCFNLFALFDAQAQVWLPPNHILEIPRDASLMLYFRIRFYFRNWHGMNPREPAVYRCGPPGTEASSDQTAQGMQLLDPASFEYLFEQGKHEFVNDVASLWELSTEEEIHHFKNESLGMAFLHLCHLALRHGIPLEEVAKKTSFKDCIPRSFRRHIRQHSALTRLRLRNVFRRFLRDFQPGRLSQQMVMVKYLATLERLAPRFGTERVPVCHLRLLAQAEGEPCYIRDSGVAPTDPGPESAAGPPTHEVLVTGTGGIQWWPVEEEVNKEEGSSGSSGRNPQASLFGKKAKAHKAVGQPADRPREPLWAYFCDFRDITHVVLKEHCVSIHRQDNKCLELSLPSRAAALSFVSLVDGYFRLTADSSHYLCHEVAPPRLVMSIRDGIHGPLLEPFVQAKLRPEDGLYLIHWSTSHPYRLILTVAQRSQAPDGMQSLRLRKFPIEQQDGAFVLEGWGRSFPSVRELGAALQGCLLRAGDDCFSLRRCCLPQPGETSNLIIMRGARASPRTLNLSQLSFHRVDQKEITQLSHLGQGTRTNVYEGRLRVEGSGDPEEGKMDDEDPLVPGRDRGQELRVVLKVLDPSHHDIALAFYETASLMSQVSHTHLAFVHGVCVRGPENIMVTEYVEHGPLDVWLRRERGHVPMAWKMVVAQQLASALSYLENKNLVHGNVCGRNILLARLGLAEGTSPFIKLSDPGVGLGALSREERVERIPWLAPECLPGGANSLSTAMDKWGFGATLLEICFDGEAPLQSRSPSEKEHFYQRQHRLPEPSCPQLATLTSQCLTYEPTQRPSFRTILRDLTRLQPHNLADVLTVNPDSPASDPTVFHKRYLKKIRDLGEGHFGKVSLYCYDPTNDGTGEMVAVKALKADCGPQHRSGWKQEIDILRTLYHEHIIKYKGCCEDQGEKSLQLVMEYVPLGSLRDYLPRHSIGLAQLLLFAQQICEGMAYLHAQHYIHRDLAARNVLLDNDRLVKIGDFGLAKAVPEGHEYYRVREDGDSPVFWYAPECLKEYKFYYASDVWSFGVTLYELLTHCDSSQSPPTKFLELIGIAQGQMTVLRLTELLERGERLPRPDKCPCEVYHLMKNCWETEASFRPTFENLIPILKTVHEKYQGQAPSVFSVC

in vivo = experiment: in vivo; set-up: species or system Sprague Dawley rats; settings: Sprague Dawley, rat, po, 5 mg/kg
Description: Assay 5: Colon Pharmacokinetics in Rats
Test compounds were individually formulated in 0.5% methyl-cellulose in water and dosed via oral gavage at 5 mg/kg to Sprague Dawley rats. At various time points (typically 1, 2, 4, 6, 24 hr) post dosing, blood samples were removed via cardiac puncture and intact colons were excised from the rats. Blood samples were centrifuged at 1500×g for 15 min to collect plasma. Colons were washed with ice cold phosphate buffered saline (PBS), weighed, and homogenized at a dilution of 1:10 in PBS. Plasma and colon levels of test compound were determined by LC-MS analysis against analytical standards constructed into a standard curve in the test matrix. A colon to plasma ratio was determined as the ratio of the colon AUC to the plasma AUC in μg hr/g.

mouse splenic NK cells = experiment: Immunosuppression effects in mouse splenic natural killer (NK) cells; assay type: in vivo, Balb/C mice; settings: PO BID three days
Description: Adult male Balb/C mice (12-14 weeks of age) from Harlan were used for the study. […] Spleens were harvested 1 or 2 h post last dose and crushed immediately for cell subtype staining. Prior to fixation, fluorophore-labelled antibodies for CD19 (FITC; B cells), CD3e (PE; pan T cells) and DX5 (APC; NK cells) were incubated with splenocyte samples from each animal to allow for simultaneous, multiple subtype % analysis on the flow cytometer. The number of total spleen cells for each animal was measured by Scepter™ 2.0 Handheld Automated Cell Counter. The absolute number of lymphocyte subtype population (e.g., splenic B, T and NK cells) was calculated from the percentage of each subtype times total spleen cells for each animal. A one way ANOVA, with Dunnett's post hoc test, was used to compare the splenic lymphocytes number of the vehicle and test compound groups. The a level was set at p<0.05. Data were presented as the mean±SEM for each group.

| Compound | IC50 [2] | decrease in DAI score as compared with vehicle treated animals [3] | IC50 [4] | JAK 2 (pKi) (JAK2) | JAK 3 (pKi) (JAK3) | THP-1 IL4 pIC50 [2] | BEAS2B pIC50 [4] | JAK 1 (pKi) (JAK1) | Tyk 2 (pKi) (Tyk2) | other results |
| --- | --- | --- | --- | --- | --- | --- | --- | --- | --- | --- |
| Cc1cc(Nc2cc3ncccc3c(N[C@@H]3C[C@H]4CCC[C@@H](C3)N4S(=O)(=O)c3cccnc3)n2)n[nH]1 [Example 8, N^7-(5-methyl-1H-pyrazol-3-yl)-N^5-((1R,3s,5S)-9-(pyridin-3-ylsulfonyl)-9-azabicyclo[3.3.1]nonan-3-yl)-1,6-naphthyridine-5,7-diamine] | < 31.6 nM | statistically significant decrease | < 31.6 nM | – | – | – | – | – | – | absorption at the portal vein (Fa%) [1]: less than 10%; bioavailability [1]: < 5% |
| Cc1cc(Nc2cc3ncccc3c(NC3CC4CCCC(C3)N4C(=O)C(C)O)n2)n[nH]1 (stereo not shown) [Example 2-16] | – | did not exhibit a statistically significant decrease | – | B (B represents a pKi value between 9 and 10 (Ki between 1 nM and 0.1 nM)) | C (C represents a pKi value between 7 and 9 (Ki between 100 nM and 1 nM)) | B (B represents a pEC50 value between 6.7 and 7.5 (EC50 between 200 nM and 32 nM)) | B (B represents a pEC50 value between 6.7 and 7.5 (EC50 between 200 nM and 32 nM)) | B (B represents a pKi value between 9 and 10 (Ki between 1 nM and 0.1 nM)) | B (B represents a pKi value between 9 and 10 (Ki between 1 nM and 0.1 nM)) | – |
| Cc1cc(Nc2cc3ncccc3c(N[C@@H]3C[C@H]4CCC[C@@H](C3)N4C(=O)C(C)(C)CO)n2)n[nH]1 [Example 2-22] | – | did not exhibit a statistically significant decrease | – | B (B represents a pKi value between 9 and 10 (Ki between 1 nM and 0.1 nM)) | C (C represents a pKi value between 7 and 9 (Ki between 100 nM and 1 nM)) | B (B represents a pEC50 value between 6.7 and 7.5 (EC50 between 200 nM and 32 nM)) | A (A represents a pEC50 value≥7.5 (EC50≤32 nM)) | B (B represents a pKi value between 9 and 10 (Ki between 1 nM and 0.1 nM)) | B (B represents a pKi value between 9 and 10 (Ki between 1 nM and 0.1 nM)) | – |
| Cc1cc(Nc2cc3ncccc3c(N[C@@H]3C[C@H]4CC[C@@H](C3)N4CCF)n2)n[nH]1 [Example 2, N^5-((1R,3s,5S)-8-(2-fluoroethyl)-8-azabicyclo[3.2.1]octan-3-yl)-N^7-(5-methyl-1H-pyrazol-3-yl)-1,6-naphthyridine-5,7-diamine] | 31.6 to 200 nM | statistically significant decrease | 31.6 to 200 nM | – | – | – | – | – | – | Ki (JAK2): 0.1 to 1 nM; Ki (JAK1; read-out: JAK 1 (pKi) (converted)): 0.1 to 1 nM; Kp (in vivo): > 450 |
| Cc1cc(Nc2cc3nc(CO)ccc3c(N[C@@H]3C[C@H]4CC[C@@H](C3)N4C(=O)OCC(C)C)n2)n[nH]1 [Example 12, Isobutyl(1R,3s,5S)-3-((2-(hydroxymethyl)-7-((5-methyl-1H-pyrazol-3-yl)amino)-1,6-naphthyridin-5-yl)amino)-8-azabicyclo[3.2.1]octane-8-carboxylate] | 31.6 to 200 nM | statistically significant decrease | 31.6 to 200 nM | – | – | – | – | – | – | absorption at the portal vein (Fa%) [1]: less than 10%; bioavailability [1]: < 5%; Ki (JAK2; read-out: JAK 2 (pKi) (converted)): 0.1 to 1 nM; Ki (JAK1): 0.1 to 1 nM |
| Cc1cc(Nc2cc3ncccc3c(N[C@@H]3C[C@H]4CC[C@@H](C3)N4S(=O)(=O)CC(C)C)n2)n[nH]1 [Example 4-3] | – | did not exhibit a statistically significant decrease | – | B (B represents a pKi value between 9 and 10 (Ki between 1 nM and 0.1 nM)) | C (C represents a pKi value between 7 and 9 (Ki between 100 nM and 1 nM)) | A (A represents a pEC50 value≥7.5 (EC50≤32 nM)) | A (A represents a pEC50 value≥7.5 (EC50≤32 nM)) | B (B represents a pKi value between 9 and 10 (Ki between 1 nM and 0.1 nM)) | B (B represents a pKi value between 9 and 10 (Ki between 1 nM and 0.1 nM)) | – |
| C[C@@H]1CCN(C(=O)CC#N)C[C@@H]1N(C)c1ncnc2[nH]ccc12 [tofacitinib] | – | – | – | – | – | – | – | – | – | treatment effect on B and T cell populations (mouse splenic NK cells; mouse spleen): No treatment effect; splenic NK cell counts (mouse splenic NK cells; mouse, tofacitinib 30 mg/kg, Example 1 up to 100 mg/kg): significantly decreased |
| Cc1cc(Nc2cc3ncccc3c(N[C@@H]3C[C@H]4CC[C@@H](C3)N4C(=O)C(F)F)n2)n[nH]1 [Example 5, 2,2-difluoro-1-((1R,3s,5S)-3-((7-((5-methyl-1H-pyrazol-3-yl)amino)-1,6-naphthyridin-5-yl)amino)-8-azabicyclo[3.2.1]octan-8-yl)ethan-1-one] | – | statistically significant decrease | – | – | – | – | – | – | – | Kp (in vivo): > 450 |
